Source: ChEMBL document CHEMBL5550160, “Leveraging a rationally designed veliparib-based anilide eliciting anti-leukemic effects for the design of pH-responsive polymer nanoformulation” (Eur J Med Chem, 2024)
Activity calls are given as the source filed them. The rule behind the calls is not given here.

What was measured:
[1] = molecular target: Histone deacetylase 3 (Homo sapiens, UniProt O15379); test: Inhibition of HDAC3 (unknown origin) using p53 residues 379 to 382 [RHKK(Ac)] as fluorogenic substrate assessed as residual activity at 1 x 10^-5M (reference value: 103.08%); details: dose 1.0 10^-5M
[2] = molecular target: T1, Histone deacetylase 1 (Homo sapiens, UniProt Q13547); test: Inhibition of HDAC1 (unknown origin) using p53 residues 379 to 382 [RHKK(Ac)] as fluorogenic substrate assessed as residual activity at 1.37 x 10^-8M (reference value: 98.06%); details: dose 1.37 10^-8M
[3] = molecular target: T1, Histone deacetylase 1; test: Inhibition of HDAC1 (unknown origin) using p53 residues 379 to 382 [RHKK(Ac)] as fluorogenic substrate assessed as residual activity at 4.57 x 10^-9M (reference value: 98.06%); details: dose 4.57 10^-9M
[4] = molecular target: T2, Protein deacetylase HDAC6 (Homo sapiens) (UniProt Q9UBN7); test: Inhibition of HDAC6 (unknown origin) using p53 residues 379 to 382 [RHKK(Ac)] as fluorogenic substrate assessed as residual activity at 1.37 x 10^-8M (reference value: 101.06%); details: dose 1.37 10^-8M
T2 sequence (whole entry): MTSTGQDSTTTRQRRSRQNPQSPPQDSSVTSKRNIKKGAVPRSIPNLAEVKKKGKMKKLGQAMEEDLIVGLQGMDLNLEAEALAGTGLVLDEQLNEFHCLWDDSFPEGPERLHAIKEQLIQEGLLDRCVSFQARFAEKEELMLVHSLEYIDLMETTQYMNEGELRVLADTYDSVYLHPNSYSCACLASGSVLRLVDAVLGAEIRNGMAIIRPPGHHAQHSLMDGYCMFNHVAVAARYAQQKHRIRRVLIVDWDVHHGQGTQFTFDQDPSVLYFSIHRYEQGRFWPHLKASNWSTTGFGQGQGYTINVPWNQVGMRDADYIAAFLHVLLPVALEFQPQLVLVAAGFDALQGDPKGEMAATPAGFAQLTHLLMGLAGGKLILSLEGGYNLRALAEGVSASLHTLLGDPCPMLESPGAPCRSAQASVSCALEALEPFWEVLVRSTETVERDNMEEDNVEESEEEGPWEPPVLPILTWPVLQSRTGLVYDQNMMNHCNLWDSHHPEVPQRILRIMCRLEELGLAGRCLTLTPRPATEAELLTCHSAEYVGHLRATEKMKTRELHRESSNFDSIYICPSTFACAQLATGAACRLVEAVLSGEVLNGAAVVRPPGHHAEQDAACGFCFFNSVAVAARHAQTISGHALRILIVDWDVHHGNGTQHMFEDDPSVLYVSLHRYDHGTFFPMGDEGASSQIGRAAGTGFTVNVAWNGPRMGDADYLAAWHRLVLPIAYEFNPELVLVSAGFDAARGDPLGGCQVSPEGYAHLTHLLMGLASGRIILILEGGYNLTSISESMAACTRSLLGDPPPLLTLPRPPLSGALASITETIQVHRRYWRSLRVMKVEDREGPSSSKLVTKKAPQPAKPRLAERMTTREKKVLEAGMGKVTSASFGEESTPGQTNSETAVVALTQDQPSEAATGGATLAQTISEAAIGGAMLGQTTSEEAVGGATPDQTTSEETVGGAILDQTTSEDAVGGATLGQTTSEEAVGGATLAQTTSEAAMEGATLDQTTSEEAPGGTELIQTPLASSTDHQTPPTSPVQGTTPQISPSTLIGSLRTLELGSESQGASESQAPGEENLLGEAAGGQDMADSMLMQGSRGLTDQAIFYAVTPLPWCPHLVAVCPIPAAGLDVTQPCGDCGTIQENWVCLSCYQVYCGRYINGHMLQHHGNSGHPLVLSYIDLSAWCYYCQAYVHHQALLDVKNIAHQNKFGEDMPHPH

[5] = molecular target: T3, Histone deacetylase 7 (Homo sapiens) (UniProt Q8WUI4); test: Inhibition of HDAC7 (unknown origin) assessed as residual activity at 3.70 x 10^-7M (reference value: 102.66%); details: dose 3.7 10^-7M
T3 sequence (whole entry): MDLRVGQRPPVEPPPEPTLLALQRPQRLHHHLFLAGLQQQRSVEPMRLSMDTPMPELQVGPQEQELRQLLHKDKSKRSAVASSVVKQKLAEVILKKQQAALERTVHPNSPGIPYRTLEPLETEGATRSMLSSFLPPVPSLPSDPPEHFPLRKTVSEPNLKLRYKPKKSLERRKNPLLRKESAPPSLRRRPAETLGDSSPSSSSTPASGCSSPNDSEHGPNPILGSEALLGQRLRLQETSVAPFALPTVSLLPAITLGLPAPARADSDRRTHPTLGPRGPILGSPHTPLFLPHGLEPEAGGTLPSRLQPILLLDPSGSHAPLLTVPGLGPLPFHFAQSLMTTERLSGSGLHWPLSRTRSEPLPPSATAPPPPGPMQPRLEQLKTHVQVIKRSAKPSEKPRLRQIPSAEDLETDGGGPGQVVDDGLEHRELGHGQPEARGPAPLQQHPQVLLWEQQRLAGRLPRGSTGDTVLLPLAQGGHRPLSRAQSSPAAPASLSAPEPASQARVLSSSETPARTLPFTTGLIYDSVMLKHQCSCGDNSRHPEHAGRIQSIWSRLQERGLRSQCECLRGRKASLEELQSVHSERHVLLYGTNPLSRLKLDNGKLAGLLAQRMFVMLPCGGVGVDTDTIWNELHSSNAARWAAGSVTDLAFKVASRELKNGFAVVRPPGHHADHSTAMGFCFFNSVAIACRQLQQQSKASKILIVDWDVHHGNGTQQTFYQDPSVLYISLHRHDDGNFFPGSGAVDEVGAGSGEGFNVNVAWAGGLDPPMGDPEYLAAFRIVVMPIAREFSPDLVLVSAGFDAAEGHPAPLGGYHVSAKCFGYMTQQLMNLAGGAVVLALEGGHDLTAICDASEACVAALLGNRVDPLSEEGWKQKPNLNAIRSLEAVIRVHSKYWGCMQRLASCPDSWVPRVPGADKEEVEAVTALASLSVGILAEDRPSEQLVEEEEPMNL

[6] = molecular target: T3, Histone deacetylase 7 (Homo sapiens); test: Inhibition of HDAC7 (unknown origin) assessed as residual activity at 5.08 x 10^-10M (reference value: 102.66%); details: dose 5.08 10^-10M
[7] = molecular target: Histone deacetylase 9 (Homo sapiens) (UniProt Q9UKV0); test: Inhibition of HDAC9 (unknown origin) assessed as residual activity at 5.08 x 10^-10M (reference value: 97.55%); details: dose 5.08 10^-10M
[8] = molecular target: Class 1 histone deacetylase (Homo sapiens) (UniProt Q13547+O15379+Q92769+Q9BY41); test: Inhibition of class 1 HDAC in human HL-60 cells assessed as upregulation of acetyl histone H3 protein expression 0.5 to 1 times IC50 by Western blot analysis; assay type: cell-based
[9] = tested on: HL-60; test: Induction of cell cycle arrest in human HL-60 cells assessed as accumulation of cells at sub-G1 phase at 0.5 to 1 times IC50 by PI staining based flow cytometry analysis; assay type: functional

T1 sequence (Q13547 whole entry, the tested form may be a part): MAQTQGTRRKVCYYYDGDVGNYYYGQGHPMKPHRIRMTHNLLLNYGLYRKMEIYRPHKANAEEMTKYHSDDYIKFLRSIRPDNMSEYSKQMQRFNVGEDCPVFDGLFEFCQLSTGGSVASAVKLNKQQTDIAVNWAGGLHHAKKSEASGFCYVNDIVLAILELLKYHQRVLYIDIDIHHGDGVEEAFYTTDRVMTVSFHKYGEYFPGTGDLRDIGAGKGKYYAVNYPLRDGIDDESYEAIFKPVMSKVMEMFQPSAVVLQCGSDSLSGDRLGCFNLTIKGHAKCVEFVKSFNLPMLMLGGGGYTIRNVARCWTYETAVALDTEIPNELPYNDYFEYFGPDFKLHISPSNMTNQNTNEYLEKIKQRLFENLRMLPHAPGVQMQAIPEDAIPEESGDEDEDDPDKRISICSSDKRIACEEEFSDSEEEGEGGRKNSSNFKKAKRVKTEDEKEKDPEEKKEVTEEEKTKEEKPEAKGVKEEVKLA
Histone deacetylase 9 (Homo sapiens), sequence (Q9UKV0 whole entry): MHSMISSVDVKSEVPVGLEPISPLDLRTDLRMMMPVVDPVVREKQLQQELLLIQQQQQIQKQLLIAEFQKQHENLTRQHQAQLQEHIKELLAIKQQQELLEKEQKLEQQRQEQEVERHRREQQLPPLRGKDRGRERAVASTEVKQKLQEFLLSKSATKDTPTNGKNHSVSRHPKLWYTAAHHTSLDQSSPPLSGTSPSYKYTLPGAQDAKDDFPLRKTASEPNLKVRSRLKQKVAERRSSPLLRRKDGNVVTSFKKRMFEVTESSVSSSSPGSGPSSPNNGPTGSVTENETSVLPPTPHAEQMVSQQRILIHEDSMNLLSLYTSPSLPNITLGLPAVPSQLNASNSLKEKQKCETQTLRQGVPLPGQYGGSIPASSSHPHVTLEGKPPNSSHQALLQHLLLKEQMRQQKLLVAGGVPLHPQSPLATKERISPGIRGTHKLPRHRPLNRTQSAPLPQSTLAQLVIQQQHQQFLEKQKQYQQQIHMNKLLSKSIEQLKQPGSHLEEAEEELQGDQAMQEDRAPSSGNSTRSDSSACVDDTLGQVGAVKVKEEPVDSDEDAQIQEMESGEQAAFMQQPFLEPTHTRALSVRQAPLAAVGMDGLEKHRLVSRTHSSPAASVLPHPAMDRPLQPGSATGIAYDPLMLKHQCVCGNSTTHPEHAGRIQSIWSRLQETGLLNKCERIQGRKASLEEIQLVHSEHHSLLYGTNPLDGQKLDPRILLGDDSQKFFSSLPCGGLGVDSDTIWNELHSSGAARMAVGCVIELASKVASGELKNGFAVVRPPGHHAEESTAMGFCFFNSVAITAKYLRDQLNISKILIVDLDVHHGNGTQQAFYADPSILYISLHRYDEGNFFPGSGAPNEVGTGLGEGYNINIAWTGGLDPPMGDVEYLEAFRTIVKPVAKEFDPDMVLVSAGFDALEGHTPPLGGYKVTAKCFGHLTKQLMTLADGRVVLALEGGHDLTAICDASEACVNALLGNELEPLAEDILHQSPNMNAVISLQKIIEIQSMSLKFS
Histone deacetylase 3, sequence (O15379 whole entry, the tested form may be a part): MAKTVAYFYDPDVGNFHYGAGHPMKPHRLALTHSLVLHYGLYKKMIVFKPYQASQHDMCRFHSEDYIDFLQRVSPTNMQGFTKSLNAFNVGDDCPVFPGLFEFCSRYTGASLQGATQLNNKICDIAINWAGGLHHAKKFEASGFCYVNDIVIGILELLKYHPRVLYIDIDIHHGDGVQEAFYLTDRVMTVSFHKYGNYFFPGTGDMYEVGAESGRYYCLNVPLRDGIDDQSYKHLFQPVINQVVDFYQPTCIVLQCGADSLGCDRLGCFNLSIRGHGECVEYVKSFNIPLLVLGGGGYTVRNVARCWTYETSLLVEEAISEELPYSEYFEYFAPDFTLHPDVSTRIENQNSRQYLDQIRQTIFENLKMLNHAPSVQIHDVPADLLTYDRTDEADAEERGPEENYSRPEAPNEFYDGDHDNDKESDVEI

Activity [1]: 20.7%
Activity [2]: 73.9%
Activity [3]: 88.7%
Activity [4]: 103%
Activity [5]: 91.9%
Activity [6]: 93.4%
Activity [7]: 93.7%
inhibition [8]: Active
SMILES: NC(=O)c1cccc2[nH]c(-c3ccc(NCc4ccc(C(=O)Nc5ccccc5N)cc4)cc3)nc12
Activity [9]: inactive
